Results as given in patent US20200150109A1, “MICROTUBULE-TARGETING DRUGS AS IMMUNE CHECKPOINT INHIBITORS AND METHODS OF SCREENING NOVEL IMMUNE CHECKPOINT INHIBITORS FOR THE TREATMENT OF CANCERS AND INFECTIOUS DISEASES” (INSERM (Institut National de la Santé et de la Recherche …, priority 2017, published 2020).
“Also recorded” adds a separate entry of the source.

Experiments:
PD-1 (CD279) = assay: Cell-based test of PD-1 cell surface expression by activated T lymphocytes (flow cytometry); parameters: species or system human; details: PBMC activated with CD3/CD28 beads + IL-2, 3 days, drugs at their optimum IC50 for proliferation (CPT, mitomycin C, aphidicolin 1 μM; triptolide, Lumi-colchicine 100 nM)
Experimental: Shown are means and standard deviations from more than ten independent experiments, using drugs at their respective optimum IC50 for proliferation.
(§1) PBMC isolated from healthy donors were activated with CD3/CD28 antibodies-coated beads (ThermoFisher) and IL-2 (100 IU/ml) in the presence of the specified concentration of the tested drug. In the example (FIG. 1), these drugs include CI-980 (so-called NSC 613862 or mivobulin) (10 nM, or 1 nM and 0.1 nM as indicated in Figures), Combretastatin-A4 (CBT-A4), (100 nM), Colchicine (100 nM), Indibulin (100 nM), Vincristine (1 μM), Vinblastine (1 μM), Vinflunine (1 μM), Vinorelbine (1 μM), Paclitaxel (1 μM), 13-Lumi(−)-Colchicine (100 nM), Camptothecin (CPT) (1 μM), Triptolide (100 nM), Mitomycin C (1 μM), Aphidicolin (1 μM). After 3 days of in vitro cell culture in complete medium at 37° C. in a humidified atmosphere containing 5% CO2, cells were immunostained for CD3 (BioLegend, clone UCHT1), CD4 (BioLegend, clone RPA-T4), CD8 (BioLegend, clone RPA-T8), CD69 (BioLegend, clone FN50), CD279 (BD Biosciences, clone EH12.1), LAG3 (BioLegend, clone 11C3C65), TIM3 (BioLegend, clone F38-2E2) and CTLA4 (BioLegend, clone BNI3) expression and then analysed for immune checkpoint expression by flow cytometry and gating on the indicated subsets of T or NK cells.

PD-1 mRNA = assay: qRT-PCR of PD-1 mRNA from activated CD3+ T lymphocytes; assay type: cell-based, human; details: activated CD3+ T lymphocytes treated or not with CI-980; 3 independent experiments
SU-DHL-1 = assay: Cytotoxicity assay, drug-treated activated PBMC against SU-DHL-1; assay type: cell-based, human; details: PBMC activated 3 days with CI-980 10 nM, rinsed, 4 hours with SU-DHL-1, 2:1 effector-to-target ratio
Experimental: (§2) PBMC isolated from healthy donors were activated with anti-CD3/CD28 antibodies-coated beads plus IL-2, in the presence or absence of CI-980 (10 nM). After 3 days, PBMC were rinsed and co-incubated for 4 hours with the PD-L1^+ cancer cell lines Karpas-299 or SU-DHL-1. Specific lysis of the target cell lines was then measured by staining of dying cells with propidium iodide (PI) and flow cytometry analysis.
(§3) PBMC isolated from healthy donors, used as effector cells, were activated with CD3/CD28 beads and IL-2, in presence or absence of CI-980 (10 nM). Human cancer cell lines-expressing PD-L1 karpas-299 and SU-DHL-1 were used as targets cells. Prior to be mixed with the effector cells, target cells were labelled with CellTrace-Violet (ThermoFisher) in order to distinguish them from the effector cells. After 3 days, effector cells were rinsed and combined with target cells at a 2:1 effector-to-target ratio. Cells were incubated during 4 hours at 37° C. and specific lysis were analysed by flow cytometry. The percentage of lysis was determined as percent of cells positive for both propidium iodide (PI) and CellTrace-Violet versus cells positive for CellTrace-Violet.

LAG3 = assay: Immune checkpoint expression by activated T lymphocytes (flow cytometry), LAG3; assay type: cell-based, human; details: CD3+ T lymphocytes activated with anti-CD3/CD28 beads + IL-2; CI-980 10 nM; 3 days
Experimental: (§4) CD3+ T lymphocyes were activated with anti-CD3/CD28 antibodies-coated beads plus IL-2, in the presence or absence of CI-980 (10 nM), and immune checkpoint expression were assessed by flow cytometry 3 days later.
as §1

Karpas-299 = assay: Cytotoxicity assay, drug-treated activated PBMC against Karpas-299; assay type: cell-based, human; details: PBMC activated 3 days with CI-980 10 nM, rinsed, 4 hours with Karpas-299, 2:1 effector-to-target ratio
Experimental: as §2, §3

CTLA4 = assay: Immune checkpoint expression by activated T lymphocytes (flow cytometry), CTLA4; assay type: cell-based, human; details: CD3+ T lymphocytes activated with anti-CD3/CD28 beads + IL-2; CI-980 10 nM; 3 days
Experimental: as §4, §1

TIM3 = assay: Immune checkpoint expression by activated T lymphocytes (flow cytometry), TIM3; assay type: cell-based, human; details: CD3+ T lymphocytes activated with anti-CD3/CD28 beads + IL-2; CI-980 10 nM; 3 days
Experimental: as §4, §1

PD-1 protein = assay: Immunoblot of PD-1 protein in CD3+ T lymphocyte cell extracts; assay type: cell-based, human; details: CD3+ T lymphocytes cell extracts, treated or not with CI-980; 3 independent experiments
Experimental: CD3+T lymphocytes cell extracts, treated or not with CI-980, were analyzed by immunoblots.

[1] = biological target: T1, PD-1 protein (programmed cell death protein 1, endogenous, from activated human CD3+ T lymphocytes) (human, UniProt Q15116 25-288); assay: co-immunoprecipitation with anti-α-tubulin antibody from activated human CD3+ T lymphocyte extract, immunoblot for PD-1
T1 construct: Endogenous PD-1 in a T lymphocyte cell extract, detected by Western blot with anti-PD-1 (ThermoFisher PA5-20350); also called CD279; PDCD1
Experimental: FIG. 4: PD-1 protein is not associated with tubulin in T lymphocytes.
α-tubulin was immunoprecipitated from activated CD3+T lymphocytes isolated from human PBMC of healthy donors using an anti-α-tubulin antibody (Sigma-Aldrich, clone B-5-1-2). Immunoprecipitation control with an anti-PD-1 antibody (ebioscience, clone J116) was also carried out. Immunoprecipitates were subjected to SDS-PAGE, and the co-immunoprecipitated PD-1 was assessed by Western Blot using an anti-PD-1 antibody (ThermoFisher, # PA5-20350).

T1 sequence (Q15116 25-288 limits assumed): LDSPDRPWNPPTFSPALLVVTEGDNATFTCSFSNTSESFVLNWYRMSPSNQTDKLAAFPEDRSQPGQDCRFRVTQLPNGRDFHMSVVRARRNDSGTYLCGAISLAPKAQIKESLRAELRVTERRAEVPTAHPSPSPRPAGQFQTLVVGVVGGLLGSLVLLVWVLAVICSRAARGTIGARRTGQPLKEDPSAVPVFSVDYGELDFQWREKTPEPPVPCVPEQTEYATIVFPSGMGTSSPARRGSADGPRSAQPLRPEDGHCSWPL

## COC1=C[C@@H]2C3=C([C@@H]2C1=O)[C@@H](NC(C)=O)CCc1cc(OC)c(OC)c(OC)c13 [beta-Lumi(−)-colchicine]
PD-1 (CD279)
  PD-1 cell surface expression: does not affect PD-1 expression
PD-1 (CD279); listed as β-Lumi(−)-Colchicine
  PD-1 cell surface expression: do not impact PD-1 expression

## CC[C@@]1(O)C(=O)OCc2c1cc1n(c2=O)Cc2cc3ccccc3nc2-1 [camptothecin]
PD-1 (CD279)
  PD-1 cell surface expression: do not inhibit PD-1 expression; also recorded: do not impact PD-1 expression

## CO[C@@]12[C@H](COC(N)=O)C3=C(C(=O)C(C)=C(N)C3=O)N1C[C@@H]1N[C@@H]12 [mitomycin C]
PD-1 (CD279)
  PD-1 cell surface expression: do not inhibit PD-1 expression; also recorded: do not impact PD-1 expression

## CCOC(=O)Nc1cc2c(c(N)n1)N=C(c1ccccc1)[C@H](C)N2 [CI-980]
PD-1 mRNA
  PD-1 mRNA level (qRT-PCR): increase PD-1 mRNA level
SU-DHL-1
  cytolytic activity (specific lysis of target cells, PI staining): enhance cytolytic activity of immune cells
LAG3
  expression of LAG3: inhibits
Karpas-299
  cytolytic activity (specific lysis of target cells, PI staining): enhance cytolytic activity of immune cells
CTLA4
  expression of CTLA4: inhibits
TIM3
  expression of TIM3: inhibits
PD-1 protein
  expression of PD-1 protein (immunoblot): inhibit expression of PD-1 protein

## CC(C)[C@]12O[C@H]1[C@@H]1O[C@]13[C@]1(O[C@H]1C[C@H]1C4=C(CC[C@@]13C)C(=O)OC4)[C@@H]2O [triptolide]
PD-1 (CD279)
  PD-1 cell surface expression: do not inhibit PD-1 expression; also recorded: do not impact PD-1 expression

## C[C@@]1(CO)[C@H](O)CC[C@@]2(C)[C@H]1CC[C@H]1C[C@@H]3C[C@@]12CC[C@]3(O)CO [aphidicolin]
PD-1 (CD279)
  PD-1 cell surface expression: do not inhibit PD-1 expression; also recorded: do not impact PD-1 expression

B1: tubulin (endogenous, immunoprecipitated with an anti-α-tubulin antibody from extracts of activated human CD3+ T lymphocytes) (other)
chain 1: MRECISIHVGQAGVQIGNACWELYCLEHGIQPDGQMPSDKTIGGGDDSFNTFFSETGAGKHVPRAVFVDLEPTVIDEVRTGTYRQLFHPEQLITGKEDAANNYARGHYTIGKEIIDLVLDRIRKLADQCTRLQGFLVFHSFGGGTGSGFTSLLMERLSVDYGKKSKLEFSIYPAPQVSTAVVEPYNSILTTHTTLEHSDCAFMVDNEAIYDICRRNLDIERPTYTNLNRLISQIVSSITASLRFDGALNVDLTEFQTNLVPYPRIHFPLATYAPVISAEKAYHEQLSVADITNACFEPANQMVKCDPGHGKYMACCLLYRGDVVPKDVNAAIATIKTKRTIQFVDWCPTGFKVGINYQPPTVVPGGDLAKVQRAVCMLSNTTAIAEAWARLDHKFDLMYAKRAFVHWYVGEGMEEGEFSEAREDMAALEKDYEEVGVDSVEGEGEEEGEEY
chain 2: MREIVHIQAGQCGNQIGAKFWEVISDEHGIDPTGTYHGDSDLQLDRISVYYNEATGGKYVPRAILVDLEPGTMDSVRSGPFGQIFRPDNFVFGQSGAGNNWAKGHYTEGAELVDSVLDVVRKEAESCDCLQGFQLTHSLGGGTGSGMGTLLISKIREEYPDRIMNTFSVVPSPKVSDTVVEPYNATLSVHQLVENTDETYCIDNEALYDICFRTLRLTTPTYGDLNHLVSGTMECVTTCLRFPGQLNADLRKLAVNMVPFPRLHFFMPGFAPLTSRGSQQYRALTVPDLTQQVFDAKNMMAACDPRHGRYLTVAAVFRGRMSMKEVDEQMLNVQNKNSSYFVEWIPNNVKTAVCDIPPRGLKMAVTFIGNSTAIQELFKRISEQFTAMFRRKAFLHWYTGEGMDEMEFTEAESNMNDLVSEYQQYQDATAEEEEDFGEEAEEEA
notes: Endogenous protein from a cell lysate; also called alpha-tubulin
[1]
  binding result: no binding
